Assay results from the supplement of paper PMC10307832.

Tests used:
Experiment in all cases: relative viability (nuclei count vs DMSO), 5 days (fraction); higher = more cells survive
201T = tested on: 201T
Procedure, shortened: (§1)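 Relative viability is defined as nuclei in treated wells over nuclei in vehicle wells. Duplicate plates were run and medians reported. Lung cancer cell lines in 1536-well plates were dosed by pin tool one day after seeding, with one drug or with a fixed anchor-drug dose plus five library-drug doses (not always all listed) in √10 steps, and nuclei were counted after 5 days.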

BEN = tested on: BEN
Procedure, shortened: as §1

CAL-12T = tested on: CAL-12T
Procedure, shortened: as §1

HCC-78 = tested on: HCC-78
Procedure, shortened: as §1

HOP-62 = tested on: HOP-62
Procedure, shortened: as §1

LCLC-97TM1 = tested on: LCLC-97TM1
Procedure, shortened: as §1

LOU-NH91 = tested on: LOU-NH91
Procedure, shortened: as §1

NCI-H1355 = tested on: NCI-H1355
Procedure, shortened: as §1

NCI-H1395 = tested on: NCI-H1395
Procedure, shortened: as §1

NCI-H1651 = tested on: NCI-H1651
Procedure, shortened: as §1

NCI-H1793 = tested on: NCI-H1793
Procedure, shortened: as §1

NCI-H1915 = tested on: NCI-H1915
Procedure, shortened: as §1

NCI-H1944 = tested on: NCI-H1944
Procedure, shortened: as §1

NCI-H2126 = tested on: NCI-H2126
Procedure, shortened: as §1

NCI-H2347 = tested on: NCI-H2347
Procedure, shortened: as §1

NCI-H3122 = tested on: NCI-H3122
Procedure, shortened: as §1

NCI-H322M = tested on: NCI-H322M
Procedure, shortened: as §1

NCI-H441 = tested on: NCI-H441
Procedure, shortened: as §1

NCI-H650 = tested on: NCI-H650
Procedure, shortened: as §1

NCI-H838 = tested on: NCI-H838
Procedure, shortened: as §1

SK-LU-1 = tested on: SK-LU-1
Procedure, shortened: as §1

SW 1573 = tested on: SW 1573
Procedure, shortened: as §1

Structure (SMILES): Cc1cn(-c2cc(NC(=O)c3ccc(C)c(Nc4nccc(-c5cccnc5)n4)c3)cc(C(F)(F)F)c2)cn1 [Nilotinib] + CC(=O)c1c(C)c2cnc(Nc3ccc(N4CCNCC4)cn3)nc2n(C2CCCC2)c1=O [Palbociclib] (partner 0.5 µM)
- relative viability (201T; first compound 0.001 µM): 0.326
- relative viability (201T; first compound 0.003162 µM): 0.371
- relative viability (201T; first compound 0.01 µM): 0.363
- relative viability (201T; first compound 0.03162 µM): 0.363
- relative viability (201T; first compound 0.1 µM): 0.351
- relative viability (BEN; first compound 0.001 µM): 0.484
- relative viability (BEN; first compound 0.003162 µM): 0.489
- relative viability (BEN; first compound 0.01 µM): 0.465
- relative viability (BEN; first compound 0.03162 µM): 0.548
- relative viability (BEN; first compound 0.1 µM): 0.503
- relative viability (CAL-12T; first compound 0.001 µM): 0.593
- relative viability (CAL-12T; first compound 0.003162 µM): 0.438
- relative viability (CAL-12T; first compound 0.01 µM): 0.473
- relative viability (CAL-12T; first compound 0.03162 µM): 0.357
- relative viability (CAL-12T; first compound 0.1 µM): 0.299
- relative viability (HCC-78; first compound 0.001 µM): 0.476
- relative viability (HCC-78; first compound 0.003162 µM): 0.509
- relative viability (HCC-78; first compound 0.01 µM): 0.532
- relative viability (HCC-78; first compound 0.03162 µM): 0.468
- relative viability (HCC-78; first compound 0.1 µM): 0.524
- relative viability (HOP-62; first compound 0.003162 µM): 0.425
- relative viability (HOP-62; first compound 0.01 µM): 0.439
- relative viability (LCLC-97TM1; first compound 0.001 µM): 0.222
- relative viability (LCLC-97TM1; first compound 0.003162 µM): 0.245
- relative viability (LCLC-97TM1; first compound 0.01 µM): 0.225
- relative viability (LCLC-97TM1; first compound 0.1 µM): 0.254
- relative viability (LOU-NH91; first compound 0.001 µM): 0.51
- relative viability (LOU-NH91; first compound 0.003162 µM): 0.543
- relative viability (LOU-NH91; first compound 0.01 µM): 0.48
- relative viability (LOU-NH91; first compound 0.03162 µM): 0.535
- relative viability (LOU-NH91; first compound 0.1 µM): 0.586
- relative viability (NCI-H1355; first compound 0.001 µM): 0.423
- relative viability (NCI-H1355; first compound 0.003162 µM): 0.457
- relative viability (NCI-H1355; first compound 0.01 µM): 0.486
- relative viability (NCI-H1355; first compound 0.03162 µM): 0.494
- relative viability (NCI-H1355; first compound 0.1 µM): 0.468
- relative viability (NCI-H1395; first compound 0.001 µM): 0.636
- relative viability (NCI-H1395; first compound 0.01 µM): 0.692
- relative viability (NCI-H1395; first compound 0.03162 µM): 0.612
- relative viability (NCI-H1395; first compound 0.1 µM): 0.599
- relative viability (NCI-H1651; first compound 0.001 µM): 0.555
- relative viability (NCI-H1651; first compound 0.003162 µM): 0.601
- relative viability (NCI-H1651; first compound 0.01 µM): 0.616
- relative viability (NCI-H1651; first compound 0.03162 µM): 0.448
- relative viability (NCI-H1651; first compound 0.1 µM): 0.562
- relative viability (NCI-H1793; first compound 0.001 µM): 0.332
- relative viability (NCI-H1793; first compound 0.003162 µM): 0.352
- relative viability (NCI-H1793; first compound 0.01 µM): 0.307
- relative viability (NCI-H1793; first compound 0.03162 µM): 0.281
- relative viability (NCI-H1793; first compound 0.1 µM): 0.3
- relative viability (NCI-H1915; first compound 0.001 µM): 0.492
- relative viability (NCI-H1915; first compound 0.003162 µM): 0.535
- relative viability (NCI-H1915; first compound 0.01 µM): 0.53
- relative viability (NCI-H1915; first compound 0.03162 µM): 0.502
- relative viability (NCI-H1915; first compound 0.1 µM): 0.475
- relative viability (NCI-H1944; first compound 0.001 µM): 0.279
- relative viability (NCI-H1944; first compound 0.003162 µM): 0.335
- relative viability (NCI-H1944; first compound 0.01 µM): 0.372
- relative viability (NCI-H1944; first compound 0.03162 µM): 0.365
- relative viability (NCI-H1944; first compound 0.1 µM): 0.378
- relative viability (NCI-H2126; first compound 0.001 µM): 0.337
- relative viability (NCI-H2126; first compound 0.003162 µM): 0.333
- relative viability (NCI-H2126; first compound 0.01 µM): 0.382
- relative viability (NCI-H2126; first compound 0.03162 µM): 0.321
- relative viability (NCI-H2126; first compound 0.1 µM): 0.346
- relative viability (NCI-H2347; first compound 0.001 µM): 0.452
- relative viability (NCI-H2347; first compound 0.003162 µM): 0.419
- relative viability (NCI-H2347; first compound 0.01 µM): 0.474
- relative viability (NCI-H2347; first compound 0.03162 µM): 0.43
- relative viability (NCI-H2347; first compound 0.1 µM): 0.396
- relative viability (NCI-H3122; first compound 0.001 µM): 0.0877
- relative viability (NCI-H3122; first compound 0.003162 µM): 0.191
- relative viability (NCI-H3122; first compound 0.01 µM): 0.243
- relative viability (NCI-H3122; first compound 0.03162 µM): 0.198
- relative viability (NCI-H3122; first compound 0.1 µM): 0.175
- relative viability (NCI-H322M; first compound 0.001 µM): 0.512
- relative viability (NCI-H322M; first compound 0.003162 µM): 0.461
- relative viability (NCI-H322M; first compound 0.01 µM): 0.534
- relative viability (NCI-H322M; first compound 0.03162 µM): 0.527
- relative viability (NCI-H322M; first compound 0.1 µM): 0.602
- relative viability (NCI-H441; first compound 0.001 µM): 0.204
- relative viability (NCI-H441; first compound 0.003162 µM): 0.209
- relative viability (NCI-H441; first compound 0.01 µM): 0.197
- relative viability (NCI-H441; first compound 0.03162 µM): 0.201
- relative viability (NCI-H441; first compound 0.1 µM): 0.192
- relative viability (NCI-H650; first compound 0.001 µM): 0.335
- relative viability (NCI-H650; first compound 0.01 µM): 0.336
- relative viability (NCI-H650; first compound 0.03162 µM): 0.305
- relative viability (NCI-H650; first compound 0.1 µM): 0.333
- relative viability (NCI-H838; first compound 0.001 µM): 0.215
- relative viability (NCI-H838; first compound 0.003162 µM): 0.23
- relative viability (NCI-H838; first compound 0.01 µM): 0.188
- relative viability (NCI-H838; first compound 0.03162 µM): 0.198
- relative viability (NCI-H838; first compound 0.1 µM): 0.201
- relative viability (SK-LU-1; first compound 0.001 µM): 0.355
- relative viability (SK-LU-1; first compound 0.003162 µM): 0.334
- relative viability (SK-LU-1; first compound 0.01 µM): 0.405
- relative viability (SK-LU-1; first compound 0.03162 µM): 0.311
- relative viability (SK-LU-1; first compound 0.1 µM): 0.335
- relative viability (SW 1573; first compound 0.001 µM): 0.391
- relative viability (SW 1573; first compound 0.003162 µM): 0.408
- relative viability (SW 1573; first compound 0.01 µM): 0.363
- relative viability (SW 1573; first compound 0.03162 µM): 0.271
- relative viability (SW 1573; first compound 0.1 µM): 0.32
